Reference: patent US20240216357A1 (SICHUAN HUIYU PHARMACEUTICAL CO., LTD., priority 2021, published 2024)
Where a name gives a salt, the structure may show the parent alone.

Columns and labels:
[1] = target: LSD1 (Homo sapiens (Human), UniProt O60341); assay: LSD1 enzyme activity detection (HTRF); assay type: biochemical; conditions: HTRF, H3K4me1 substrate; read-out: Inhibition of enzymatic activity of LSD1 IC50
[2] = test system: NCI-H1417 cells; assay: In vitro cell proliferation detection (CellTiter-Glo, 7 days); assay type: cell-based; conditions: Homo sapiens, 168 h; NCI-H1417 cells, 7 days, CellTiter-Glo; read-out: NCI-H1417 proliferation inhibition IC50

| Compound | IC50 [1] [nM] | IC50 [2] [nM] |
| --- | --- | --- |
| COc1ccc(-c2c(OCC3CCC3)cc(N3CCC(N)CC3)nc2-c2ccc(C#N)c(F)c2)cc1O [Example 107, 4-(6-(4-aminopiperidin-1-yl)-4-(cyclobutylmethoxy)-3-(3-hydroxy-4-methoxyphenyl)pyridin-2-yl)-2-fluorobenzonitrile hydrochloride] | 2.5 ± 1.7 | 8.35 |
| Cc1noc2cc(-c3c(O)cc(N4C5CCC4CC(N)C5)nc3-c3ccc(C#N)c(F)c3)c(F)cc12 (stereo not drawn) [Example 24, 4-(6-(3-amino-8-azabicyclo[3.2.1]octane-8-yl)-3-(5-fluoro-3-methylbenzo[d]isoxazol-6-yl)-4-hydroxypyridin-2-yl)-2-fluorobenzonitrile] | 21.5 ± 20.5 | 252 |
| COc1ccc(-c2c(O)cc(N3CCC(NCC(C)(C)O)CC3)nc2-c2ccc(C#N)c(F)c2)cc1F [Example 45, 2-fluoro-4-(3-(3-fluoro-4-methoxyphenyl)-4-hydroxy-6-(4-((2-hydroxy-2-methylpropyl)amino)piperidin-1-yl)pyridin-2-yl)benzonitrile hydrochloride] | 184 | 160 |
| CC(C)(O)C#Cc1ccc(-c2c(O)cc(N3CCC(N)CC3)nc2-c2ccc(C#N)c(F)c2)cc1F [Example 25, 4-(6-(4-aminopiperidin-1-yl)-3-(3-fluoro-4-(3-hydroxy-3-methyl-1-alkynyl-1-yl)phenyl)-4-hydroxypyridin-2-yl)-2-fluorobenzonitrile hydrochloride] | 71.7 | 868 |
| CS(=O)(=O)N1CCN(C(=O)c2cc(CCN[C@@H]3C[C@H]3c3ccc(F)cc3)cc(-c3ccc(-n4cccn4)cc3)n2)CC1 [Example 256, (6-(4-(1H-pyrazol-1-yl)phenyl)-4-(2-(((1R,2S)-2-(4-fluorophenyl)cyclopropyl)amino)ethyl)pyridin-2-yl) (4-(methylsulfonyl)piperazin-1-yl)methanone] | 71.3 | 10.8 |
| CN(CCCN)c1nc(-c2ccc(C#N)c(F)c2)c(-c2ccc(F)c(O)c2)c2nccn12 [Example 148, 4-(5-((3-aminopropyl) (methyl)amino)-8-(4-fluoro-3-hydroxyphenyl)imidazolo [1,2-c]pyrimidin-7-yl)-2-fluorobenzonitrile] | 6.9 ± 1.3 | 78 |
| O=C(NC1CCOCC1)c1cc(CN[C@@H]2C[C@H]2c2ccc(F)cc2)nc(-c2ccccc2)n1 [Example 237] | 423 ± 23 | 28.3 |
| COc1ccc(-c2c(-c3ccc(C#N)c(F)c3)nc(N3CCC(N)CC3)c3nc[nH]c23)cc1F [Example 270, 4-(4-(4-aminopiperidin-1-yl)-7-(3-fluoro-4-methoxyphenyl)-1H-imidazolo[4,5-c]pyridin-6-yl)-2-fluorobenzonitrile hydrochloride] | 10.1 | 8.64 |
| CC1(N)CCN(c2nc(-c3ccc(C#N)c(F)c3)c(-c3ccc(F)c(O)c3)c3nccn23)CC1 [Example 147, 4-(5-(4-amino-4-methylpiperidin-1-yl)-8-(4-fluoro-3-hydroxyphenyl)imidazolo[1,2-c]pyrimidin-7-yl)-2-fluorobenzonitrile] | 11.5 ± 4.4 | 8 |
| N#Cc1ccc(-c2nc(N3CCC(N)CC3)cc(O)c2-c2ccc3oc(=O)[nH]c3c2)cc1F [Example 19, 4-(6-(4-aminopiperidin-1-yl)-4-hydroxy-3-(2-oxo-2,3-dihydrobenzo[d]oxazol-5-yl)pyridin-2-yl)-2-fluorobenzonitrile hydrochloride] | 5.96 | > 1000 |
| N#Cc1ccc(-c2nc(N3CCC(N)CC3)cc(O)c2-c2ccc(N3CCOCC3)cc2)cc1F [Example 21, 4-(6-(4-aminopiperidin-1-yl)-4-hydroxy-3-(4-morpholinophenyl)pyridin-2-yl)-2-fluorobenzonitrile hydrochloride] | 10.5 | 38.7 |
| COc1ccc(-c2c(-c3ccc(C#N)c(F)c3)nc(N3CC4CC(C3)C4N)n3ccnc23)cc1F (stereo not drawn) [Example 167, 4-(5-(6-amino-3-azabicyclo [3.1.1]heptane-3-yl)-8-(3-fluoro-4-methoxyphenyl)imidazolo[1,2-c]pyrimidin-7-yl)-2-fluorobenzonitrile hydrochloride] | 78.4 | 155 |
| COc1ccc(-c2c(-c3ccc(C#N)nc3)nc(N3C4CCC3CC(N)C4)n3ccnc23)cc1F (stereo not drawn) [Example 176, 5-(5-(3-amino-8-azabicyclo[3.2.1]octane-8-yl)-8-(3-fluoro-4-methoxyphenyl)imidazolo[1,2-c]pyrimidin-7-yl) picolinonitrile hydrochloride] | 16.8 | 21.6 |
| COc1ccc(-c2c(-c3ccc(C#N)cc3)nc(N3C4CCC3CC(N)C4)n3ccnc23)cc1F (stereo not drawn) [Example 178, 4-(5-(3-amino-8-azabicyclo [3.2.1]octane-8-yl)-8-(3-fluoro-4-methoxyphenyl)imidazolo[1,2-c]pyrimidin-7-yl) benzonitrile hydrochloride] | 3.8 ± 2.2 | 6.24 |
| COC(=O)C1CCN(C(=O)c2cc(CN[C@@H]3C[C@H]3c3ccc(F)cc3)nc(-c3ccc(-n4cccn4)cc3)n2)CC1 [Example 231] | 22.5 | 30.2 |
| COc1ccc(-c2c(OC(F)F)cc(N3CCC(N)CC3)nc2-c2ccc(C#N)c(F)c2)cc1O [Example 106, 4-(6-(4-aminopiperidin-1-yl)-4-(difluoromethoxy)-3-(3-hydroxy-4-methoxyphenyl)pyridin-2-yl)-2-fluorobenzonitrile] | 1.2 ± 0.7 | 0.594 |
| COc1ccc(-c2nc(CN[C@@H]3C[C@H]3c3ccc(F)cc3)cc(C(=O)N3CCN(S(C)(=O)=O)CC3)n2)cc1F [Example 225] | 52.1 | 27.8 |
| COc1ccc(-c2c(-c3ccc(C#N)c(F)c3)nc(N3CC4CCC3CC4N)n3ccnc23)cc1F (stereo not drawn) [Example 170, 4-(5-(5-amino-2-azabicyclo[2.2.2]octane-2-yl)-8-(3-fluoro-4-methoxyphenyl)imidazolo[1,2-c]pyrimidin-7-yl)-2-fluorobenzonitrile hydrochloride] | 13.2 | 18.3 |
| CS(=O)(=O)N1CCN(C(=O)c2cc(CN[C@@H]3C[C@H]3c3ccc(F)cc3)nc(-c3ccc(-c4ccn[nH]4)cc3)n2)CC1 [Example 226] | 19.8 | 2.53 |
| COc1ccc(-c2c(O)cc(N3C4CCC3CC(N)C4)nc2-c2ccc(C#N)c(F)c2)cc1F (stereo not drawn) [Example 14, 4-(6-(3-amino-8-azabicyclo[3.2.1]octane-8-yl)-3-(3-fluoro-4-methoxyphenyl)-4-hydroxypyridin-2-yl)-2-fluorobenzonitrile] | 13.8 | 64.9 |
| Cc1noc2cc(-c3c(-c4ccc(C#N)c(F)c4)nc(N4CCC(C)(N)CC4)n4ccnc34)c(F)cc12 [Example 149, 4-(5-(4-amino-4-methylpiperidin-1-yl)-8-(5-fluoro-3-methylbenzo [d]isoxazol-6-yl)imidazolo[1,2-c]pyrimidin-7-yl)-2-fluorobenzonitrile] | 33.2 | 12.8 |
| N#Cc1ccc(-c2nc(N3C4CCC3CC(N)C4)n3ccnc3c2-c2cc3[nH]ncc3cc2F)cc1F (stereo not drawn) [Example 173, 4-(5-(3-amino-8-azabicyclo[3.2.1]octane-8-yl)-8-(5-fluoro-1H-indazole-6-yl)imidazolo[1,2-c]pyrimidin-7-yl)-2-fluorobenzonitrile hydrochloride] | 0.8 ± 0.2 | 8.15 |
| CCCCCc1noc2cc(-c3sc(C(=O)N4C5CCC4CC(N)C5)cc3-c3ccc(C#N)c(F)c3)c(F)cc12 (stereo not drawn) [Example 8, 4-(5-(3-amino-8-azabicyclo[3.2.1]octane-8-carbonyl)-2-(5-fluoro-3-pentylbenzo[d]isoxazol-6-yl)thiophen-3-yl)-2-fluorobenzonitrile] | 0.3 ± 0.04 | 6.94 |
| COc1ccc(-c2c(O)cc(N(C)CCCN)nc2-c2ccc(C#N)c(F)c2)cc1O [Example 62] | 21 | 224 |
| Cc1ccc(-c2sc(C(=O)N3C4CCC3CC(N)C4)cc2-c2ccc(C#N)c(F)c2)c(F)c1 (stereo not drawn) [Example 6, 4-(5-(3-amino-8-azabicyclo[3.2.1]octane-8-carbonyl)-2-(2-fluoro-4-methylphenyl)thiophen-3-yl)-2-fluorobenzonitrile hydrochloride] | 0.3 ± 0.25 | 3.64 |
| Cc1noc2cc(-c3c(-c4ccc(C#N)c(F)c4)nc(N4CCC(N)CC4)c4c3cnn4C)c(F)cc12 [Example 286, 4-(7-(4-aminopiperidin-1-yl)-4-(5-fluoro-3-methylbenzo[d]isoxazol-6-yl)-1-methyl-1H-pyrazolo [3,4-c]pyridin-5-yl)-2-fluorobenzonitrile] | 3.5 | 4.58 |
| N#Cc1ccc(-c2nc(N3CCC(N)CC3)cc(O)c2-c2ccn3ccnc3c2)cc1F [Example 17, 4-(6-(4-aminopiperidin-1-yl)-4-hydroxy-3-(imidazolo[1,2-a]pyridin-7-yl)pyridin-2-yl)-2-fluorobenzonitrile hydrochloride] | 19.4 | > 1000 |
| COc1ccc(-c2c(O)cc(N3C4CCC3CC(N)C4)nc2-c2ccc(C#N)c(F)c2)cc1O (stereo not drawn) [Example 37, 4-(6-(3-amino-8-azabicyclo[3.2.1]octane-8-yl)-4-hydroxy-3-(3-hydroxy-4-methoxyphenyl)pyridin-2-yl)-2-fluorobenzonitrile] | 15.1 | 173 |
| CC(C)(O)Cn1ncc2cc(F)c(-c3sc(C(=O)N4C5CCC4CC(N)C5)cc3-c3ccc(C#N)c(F)c3)cc21 (stereo not drawn) [Example 217, 4-(5-(3-amino-8-azabicyclo [3.2.1]octan-8-carbonyl)-2-(5-fluoro-1-(2-hydroxy-2-methylpropyl)-1H-indazol-6-yl)thiophen-3-yl)-2-fluorobenzonitrile hydrochloride] | 12.8 | 67.8 |
| N#Cc1ccc(-c2nc(N3CCC(N)CC3)cc(O)c2-c2ccc(Cl)c(O)c2)cc1F [Example 59, 4-(6-(4-aminopiperidin-1-yl)-3-(4-chloro-3-hydroxyphenyl)-4-hydroxypyridin-2-yl)-2-fluorobenzonitrile] | 0.7 ± 0.3 | 2.35 |
